Reference: US20250186466A1, “ZLT-007 AND METHODS OF TREATING DIABETIC NEUROPATHY” (IIere Therapeutics LLC, priority 2022, published 2025)

Tests used:
[1] = tested on: subjects with pain associated with diabetic neuropathy; assay: 12-week clinical study, Daily Pain Numeric Rating Scale (NRS); type: in vivo, human
Description: (§1) To determine the effect of ZLT-L-007 in subjects with pain associated with diabetic neuropathy, an observational 12-week clinical study to evaluate the efficacy, safety and tolerability of ZLT-L-007 versus Pregabalin (300 Mg/Day) was conducted.
Primary endpoints of the study included: 1. Recording Daily Pain Numeric Rating Scale (NRS) at Baseline, Day 30, Day 60, and Day 90.
Three groups were used to evaluate the effect of ZLT-L-007 in subjects with pain associated with diabetic neuropathy: Group 1 (Pregabalin), Group 2 (ZLT-L-007 pharmaceutical composition+terpene composition), and Group 3 (Pregabalin and ZLT-L-007 pharmaceutical composition+terpene composition). More detailed information regarding each group's treatment is provided below.
Group 3 subjects were already taking pregabalin/Lyrica® at the prescribed dose recommended by their doctor. Subjects then received one capsule by mouth twice daily of the ZLT-L-007 pharmaceutical composition. Participants were also given one capsule by mouth twice daily of a terpene composition that comprised 0.25 mg of myrcene and 0.25 mg of linalool.
Group 3 was administered one capsule by mouth twice daily of the ZLT-L-007 pharmaceutical composition.. Participants were also given one capsule by mouth twice daily of a terpene composition that comprised 0.25 mg of myrcene and 0.25 mg of linalool.

[2] = tested on: subjects with pain associated with diabetic neuropathy; assay: 12-week clinical study, pain Visual Analog Scale (VAS); type: in vivo, human; details: Day 30, Day 60, Day 90
Description: as §1

## CC(C)C[C@H](CN)CC(=O)O [Pregabalin]
[1]; 30-day follow-up, ZLT-L-007 one capsule by mouth twice daily plus terpene capsule
  NRS Severity, median percent change from baseline: −33.33%
[1]; 60-day follow-up
  NRS Severity, median percent change from baseline: −20.00%
[1]; 90-day follow-up
  NRS Severity, median percent change from baseline: −35.00%
[1]; all follow-up periods
  NRS Severity, median percent change from baseline, range: −20.00% to −35.00%
[2]
  VAS pain severity, median percent change from baseline, range: −33.33% to −35.00%
